According to PubChem BioAssay AID248 (DTP/NCI, 2004):
Several values for one entry are separate records, joined by “and”; a condition that tells them apart may be missing. Equal values may be shown once. Toxic doses and inconclusive results are not listed. Rule as the data show it: active = T/C of 150% or more; inactive = T/C below 125%.

Test system: L1210 leukemia ip in BDF1 mice, survival T/C
Experiment: NCI In Vivo Anticancer Drug Screen. Data for tumor model L1210 Leukemia (intraperitoneal) in B6D2F1 (BDF1) mice
Details: higher = longer survival
Outline: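 Transplanted-tumor mice were given test agent; controls received vehicle only. Survival readings from the two groups were divided (treated over control).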

Measured: T/C

Cn1cnc([N+](=O)[O-])c1Sc1nc(N)nc2nc[nH]c12
inactive: endpoint: mean survival time, dose: 0.16 mg/kg/injection, schedule: Q#A X030 (oral), vehicle: saline 110 % of control | endpoint: mean survival time, dose: 0.31 mg/kg/injection, schedule: Q#A X030 (oral), vehicle: saline 106 % of control | endpoint: mean survival time, dose: 0.62 mg/kg/injection, schedule: Q#A X030 (oral), vehicle: saline 108 % of control | endpoint: mean survival time, dose: 0.9 mg/kg/injection, schedule: Q03DX005 (oral), vehicle: saline 101 % of control | endpoint: mean survival time, dose: 1.2 mg/kg/injection, schedule: Q01DX006 (iv), vehicle: saline 105 % of control | endpoint: mean survival time, dose: 1.2 mg/kg/injection, schedule: Q01DX Z (im), vehicle: saline 105 % of control | endpoint: mean survival time, dose: 1.25 mg/kg/injection, schedule: Q01DX010 (ip), vehicle: saline 112 % of control and 120 % of control | endpoint: mean survival time, dose: 1.25 mg/kg/injection, schedule: Q#A X030 (oral), vehicle: saline 113 % of control | endpoint: mean survival time, dose: 1.6 mg/kg/injection, schedule: Q01DX001 (oral), vehicle: saline 110 % of control | endpoint: mean survival time, dose: 1.9 mg/kg/injection, schedule: Q03DX005 (oral), vehicle: saline 106 % of control | endpoint: mean survival time, dose: 2.1 mg/kg/injection, schedule: Q07DX003 (oral), vehicle: saline 102 % of control | endpoint: mean survival time, dose: 2.5 mg/kg/injection, schedule: Q01DX006 (iv), vehicle: saline 109 % of control | endpoint: mean survival time, dose: 2.5 mg/kg/injection, schedule: Q01DX Z (im), vehicle: saline 100 % of control | endpoint: mean survival time, dose: 3.13 mg/kg/injection, schedule: Q01DX001 (oral), vehicle: saline 104 % of control and 108 % of control | endpoint: mean survival time, dose: 3.8 mg/kg/injection, schedule: Q03DX005 (oral), vehicle: saline 104 % of control | endpoint: mean survival time, dose: 4.3 mg/kg/injection, schedule: Q07DX003 (oral), vehicle: saline 106 % of control | endpoint: mean survival time, dose: 5.0 mg/kg/injection, schedule: Q01DX Z (oral), vehicle: saline 116 % of control | endpoint: mean survival time, dose: 6.0 mg/kg/injection, schedule: Q01DX001 (ip), vehicle: saline 109 % of control and 113 % of control | endpoint: mean survival time, dose: 6.25 mg/kg/injection, schedule: Q01DX001 (oral), vehicle: saline 102 % of control | endpoint: mean survival time, dose: 7.5 mg/kg/injection, schedule: Q03DX005 (oral), vehicle: saline 112 % of control | endpoint: mean survival time, dose: 8.7 mg/kg/injection, schedule: Q07DX003 (oral), vehicle: saline 113 % of control | endpoint: mean survival time, dose: 10.0 mg/kg/injection, schedule: Q01DX Z (oral), vehicle: saline 123 % of control | endpoint: mean survival time, dose: 12.5 mg/kg/injection, schedule: Q01DX001 (oral), vehicle: saline 110 % of control | endpoint: mean survival time, dose: 17.5 mg/kg/injection, schedule: Q07DX003 (oral), vehicle: saline 122 % of control | endpoint: mean survival time, dose: 20.0 mg/kg/injection, schedule: Q01DX009 (ip), vehicle: saline 114 % of control and 120 % of control | endpoint: mean survival time, dose: 160.0 mg/kg/injection, schedule: Q01DX Z (im), vehicle: saline 96 % of control | endpoint: mean survival time, dose: 160.0 mg/kg/injection, schedule: Q01DX Z (oral), vehicle: saline 111 % of control | endpoint: mean survival time, dose: 320.0 mg/kg/injection, schedule: Q01DX Z (oral), vehicle: saline 91 % of control | endpoint: mean survival time, dose: 640.0 mg/kg/injection, schedule: Q01DX Z (oral), vehicle: saline 86 % of control | endpoint: mean survival time, dose: 960.0 mg/kg/injection, schedule: Q03DX005 (oral), vehicle: saline 106 % of control | endpoint: mean survival time, dose: 1920.0 mg/kg/injection, schedule: Q03DX005 (oral), vehicle: saline 100 % of control | endpoint: median survival time, dose: 10.0 mg/kg/injection, schedule: Q01DX009 (ip), vehicle: saline 115 % of control | endpoint: median survival time, dose: 20.0 mg/kg/injection, schedule: Q01DX009 (ip), vehicle: saline 100 % of control and 118 % of control
active: endpoint: mean survival time, dose: 1.2 mg/kg/injection, schedule: Q01DX Z (ip), vehicle: saline 168 % of control | endpoint: mean survival time, dose: 1.2 mg/kg/injection, schedule: Q01DX Z (sc), vehicle: saline 166 % of control | endpoint: mean survival time, dose: 2.5 mg/kg/injection, schedule: Q01DX009 (ip), vehicle: saline 151 % of control and 159 % of control | endpoint: mean survival time, dose: 2.5 mg/kg/injection, schedule: Q01DX010 (ip), vehicle: saline 154 % of control and 155 % of control | endpoint: mean survival time, dose: 2.5 mg/kg/injection, schedule: Q01DX Z (ip), vehicle: saline 150 % of control | endpoint: mean survival time, dose: 5.0 mg/kg/injection, schedule: Q01DX009 (ip), vehicle: saline 156 % of control | endpoint: mean survival time, dose: 5.0 mg/kg/injection, schedule: Q01DX010 (ip), vehicle: saline 161 % of control and 163 % of control | endpoint: mean survival time, dose: 5.0 mg/kg/injection, schedule: Q01DX Z (ip), vehicle: saline 166 % of control | endpoint: mean survival time, dose: 5.0 mg/kg/injection, schedule: Q01DX Z (sc), vehicle: saline 209 % of control | endpoint: mean survival time, dose: 10.0 mg/kg/injection, schedule: Q01DX010 (ip), vehicle: saline 152 % of control | endpoint: mean survival time, dose: 20.0 mg/kg/injection, schedule: Q01DX006 (iv), vehicle: saline 153 % of control | endpoint: mean survival time, dose: 22.0 mg/kg/injection, schedule: Q01DX001 (ip), vehicle: carboxymethylcellulose (CMC) 166 % of control | endpoint: mean survival time, dose: 35.0 mg/kg/injection, schedule: Q01DX001 (ip), vehicle: carboxymethylcellulose (CMC) 174 % of control | endpoint: mean survival time, dose: 40.0 mg/kg/injection, schedule: Q01DX Z (oral), vehicle: saline 174 % of control | endpoint: mean survival time, dose: 52.0 mg/kg/injection, schedule: Q01DX001 (ip), vehicle: carboxymethylcellulose (CMC) 180 % of control | endpoint: mean survival time, dose: 78.0 mg/kg/injection, schedule: Q01DX001 (ip), vehicle: carboxymethylcellulose (CMC) 196 % of control | endpoint: mean survival time, dose: 80.0 mg/kg/injection, schedule: Q01DX Z (oral), vehicle: saline 163 % of control | endpoint: mean survival time, dose: 100.0 mg/kg/injection, schedule: Q01DX001 (ip), vehicle: saline 200 % of control and 254 % of control | endpoint: median survival time, dose: 2.5 mg/kg/injection, schedule: Q01DX009 (ip), vehicle: saline 150 % of control
116 % of control and 239 % of control: endpoint: mean survival time, dose: 25.0 mg/kg/injection, schedule: Q01DX001 (ip), vehicle: saline

COC1OC(COC(=O)c2ccc([N+](=O)[O-])cc2)C(OC(=O)c2ccc([N+](=O)[O-])cc2)C1OCc1ccccc1 (centres undefined)
inactive: endpoint: mean survival time, dose: 75.0 mg/kg/injection, schedule: Q01DX001 (ip), vehicle: other 86 % of control | endpoint: mean survival time, dose: 150.0 mg/kg/injection, schedule: Q01DX001 (ip), vehicle: other 86 % of control | endpoint: mean survival time, dose: 300.0 mg/kg/injection, schedule: Q01DX001 (ip), vehicle: other 86 % of control and 89 % of control

COc1ccc(O)c(C=O)c1
inactive: endpoint: mean survival time, dose: 100.0 mg/kg/injection, schedule: Q01DX009 (ip), vehicle: saline with Tween-80 108 % of control

O=c1[nH]c(=S)nc2nc[nH]n12
inactive: endpoint: mean survival time, dose: 100.0 mg/kg/injection, schedule: Q04DX003 (ip), vehicle: saline 97 % of control | endpoint: mean survival time, dose: 200.0 mg/kg/injection, schedule: Q04DX003 (ip), vehicle: saline 102 % of control | endpoint: mean survival time, dose: 400.0 mg/kg/injection, schedule: Q04DX003 (ip), vehicle: saline 105 % of control

CCC(=O)NC(CC(C)C)C(=O)NC(CC(C)C)C(=O)NC(C=O)CCCN=C(N)N (centres undefined) (tested in a mixture with another compound)
inactive: endpoint: mean survival time, dose: 25.0 mg/kg/injection, schedule: Q04DX002 (ip), vehicle: saline 98 % of control | endpoint: mean survival time, dose: 50.0 mg/kg/injection, schedule: Q04DX002 (ip), vehicle: saline 91 % of control | endpoint: mean survival time, dose: 100.0 mg/kg/injection, schedule: Q04DX002 (ip), vehicle: saline 91 % of control

CCOC(=O)c1cnc(=S)[nH]c1N
inactive: endpoint: mean survival time, dose: 50.0 mg/kg/injection, schedule: Q01DX009 (ip), vehicle: Klucel (hydroxypropylcellulose) (HPC) 102 % of control | endpoint: mean survival time, dose: 50.0 mg/kg/injection, schedule: Q04DX003 (ip), vehicle: Klucel (hydroxypropylcellulose) (HPC) 95 % of control | endpoint: mean survival time, dose: 100.0 mg/kg/injection, schedule: Q01DX009 (ip), vehicle: Klucel (hydroxypropylcellulose) (HPC) 96 % of control | endpoint: mean survival time, dose: 100.0 mg/kg/injection, schedule: Q04DX003 (ip), vehicle: Klucel (hydroxypropylcellulose) (HPC) 95 % of control | endpoint: mean survival time, dose: 200.0 mg/kg/injection, schedule: Q01DX009 (ip), vehicle: Klucel (hydroxypropylcellulose) (HPC) 93 % of control | endpoint: mean survival time, dose: 200.0 mg/kg/injection, schedule: Q04DX003 (ip), vehicle: Klucel (hydroxypropylcellulose) (HPC) 97 % of control

CC(C)CNC(=O)c1cccc(-c2ccccc2C(=O)NCC(C)C)c1
inactive: endpoint: mean survival time, dose: 100.0 mg/kg/injection, schedule: Q01DX001 (ip), vehicle: other 91 % of control | endpoint: mean survival time, dose: 200.0 mg/kg/injection, schedule: Q01DX001 (ip), vehicle: other 93 % of control | endpoint: mean survival time, dose: 400.0 mg/kg/injection, schedule: Q01DX001 (ip), vehicle: other 96 % of control

O=C1CC=C2C3CC4N(CCC45c4ccccc4N1C25)C/C3=C\CBr (centres undefined)
inactive: endpoint: mean survival time, dose: 9.38 mg/kg/injection, schedule: Q01DX001 (ip), vehicle: other 100 % of control

CCCCS/C=C1\CCC2(C)CCCCC2C1=O (centres undefined)
inactive: endpoint: mean survival time, dose: 100.0 mg/kg/injection, schedule: Q04DX002 (ip), vehicle: saline with Tween-80 100 % of control | endpoint: mean survival time, dose: 200.0 mg/kg/injection, schedule: Q04DX002 (ip), vehicle: saline with Tween-80 100 % of control | endpoint: mean survival time, dose: 400.0 mg/kg/injection, schedule: Q04DX002 (ip), vehicle: saline with Tween-80 120 % of control

OC1CCC2=C(C1)C1CCC2C1 (centres undefined)
inactive: endpoint: mean survival time, dose: 12.5 mg/kg/injection, schedule: Q04DX003 (ip), vehicle: saline with Tween-80 96 % of control | endpoint: mean survival time, dose: 25.0 mg/kg/injection, schedule: Q04DX003 (ip), vehicle: saline with Tween-80 89 % of control | endpoint: mean survival time, dose: 50.0 mg/kg/injection, schedule: Q04DX003 (ip), vehicle: saline with Tween-80 98 % of control
